These results are taken from patent US8778643B2, “Methods for increasing lipid levels and producing triacylglycerols in algae” (priority 2012, dated 2014).

Assay [1] deals with Nannochloropsis oculata. Description: 500 mL batch culture: growth, dry weight and lipid extract (gravimetric). Type of assay: cell-based.
Protocol: (§1) Batch cultures were grown in 500 mL Pyrex media bottles with stirring and air bubbling (homemade manifold with Petco air pump, 2-4% CO2). Incoming air was sterile filtered by Polyvent 4 disposable filters (Whatman, Kent, UK). […] To minimize bacterial contamination, all equipment and materials were autoclaved and media was added to flask in a Purifier Vertical Clean bench (Labconco, Kansas City, Mo.). […] The amount of DMSO is standardized for all experiments to 0.4%.
(§2) For all compound cultures, the 2 mL DMSO stock solution was added to media (without algae) first and mixed well. Control cultures were grown without DMSO. DMSO controls consisted of 0.04-1.0% DMSO. After the addition of algae and media, the container was plugged with a bug stopper vented closure cap and mixed thoroughly. Absorbance is measured immediately for Day 0 analysis. Afterward, absorbance was measured every 1-2 days with a cuvette (1 mL volume) on the Thermo Scientific Genesys 10S V is Spectrophotometer (ThermoFisher, San Jose) at 680 nm.
(§3) Batch cultures were also repeated in triplicate and compared to a control culture grown at the same time. Algae were harvested and lipids were extracted for gravimetric analysis.
(§4) The nonpolar algal extracts were harvested from 500 mL cultures when indicated on growth curves, a minimum of 3 days into stationary phase.
(§5) Cell density was monitored by measuring absorbance at 680 nm every 1-2 days.
(§6) 500-mL cultures were harvested 6 days into stationary phase based on absorbance values. Cells were concentrated by centrifugation and lyophilization to remove water. Nonpolar lipids were extracted by sonication and solvent (chloroform-methanol and PBS buffer). […] Changes in lipid levels for batch cultures were determined by crude lipid extract mass.
In the next assay the test system is Nannochloropsis salina. Conditions: for % Inc: increase of lipid production; for optimal effective concentration (lipid production): lipoxygenase inhibitor microplate screen; for effect on lipid production / lipid levels: microplate assay, multiple concentrations.
In assay [2] the test system is Nannochloropsis oculata. Conditions: for increase in lipid levels (Nile Red): lower concentrations, >0.040 nM; for effect on lipid production / lipid levels: microplate assay, multiple concentrations.
Assay [3] concerns Nannochloris sp. Description: Microplate assay: growth (absorbance 680 nm) and intracellular lipids (Nile Red fluorescence). Type of assay: cell-based. Conditions: for Nile Red Fluorescence % Increase: Nannochloris sp., compounds tested at 20 μM, initial screening, p<0.05; for effect on lipid production / lipid levels: microplate assay, multiple concentrations.
Protocol: (§7) Stock cultures were aerated by stirring with bubbling air (homemade manifold with Petco air pump, 2-4% CO2) or by orbital shaking (Thermo Scientific MAXQ 2000) at a constant speed of 150 rpm at 22±3° C. with a 16:8 hour light/dark cycle. Stocks were kept at stationary phase for use. Algae were prepared as dictated by culture center.
(§8) Compounds were selected based on reported biological activity in non-microalgae organisms. To ensure that compounds retained their quality, they were stored under advised conditions after purchasing from the manufacturer. Solutions of all assay compounds were prepared as 10 mM stock solutions by dissolving in DMSO in 2-dram amber vials and then stored in darkness −20° C. 96-well PCR plates were used to create a stock plate layout that was then transferred to the algae microplates. A plate map was used to distribute each compound to a well based on molecule name, collection number, and CAS number. For 20 μM and 200 nM assay plates, 10 mM compound stock in DMSO was diluted into plate maps of 5 mM and 50 μM assay stocks, respectively.
(§9) All materials for assay experiments were autoclaved before each use to maintain axenic algae cultures. Algae species were checked for homogeneity using a TS-100 light microscope (Nikon, Japan). […] Diluted stock solutions were made immediately prior to use for consistency and optimal plate growth. Cell density was measured on a Thermo Scientific Genesys 10S Vis Spectrophotometer (ThermoFisher, San Jose), using a 1 mL cuvette at 680 nm.
(§10) Plates were originally run in triplicate, before replicates were increased to quadruplicate, along with a separate control plate to compare growth. Due to extensive evaporation in exterior wells over time, our unique algae plate layout was designed to use the 60 interior wells out of 96 wells for the experiment. The 36 outer wells were filled with Millipore water and media to prevent evaporation and edge effects in the inner algae wells, as well as serve as blanks. The 60 wells with algae contained a total volume of 251 μL (100 μL of media+DMSO compound stock +150 μL dilute algae stock). For 20 μM and 200 nM assay plates, 10 mM compound stock in DMSO is diluted into plate maps of 5 mM and 50 μM assay stocks, respectively. […] Plates were parafilmed during growth to limit the amount of evaporation that can occur. Plates were numbered, and numerically ordered to ensure they got the same shaker space.
(§11) The shakers are kept at a constant shaking of 150 rpm. Ambient temperature is 22±3° C.
Assay [4] deals with Phaeodactylum tricornutum. The assay is described as above. Type of assay: cell-based. Conditions: for increase in lipid levels: higher concentrations; for effect on lipid production / lipid levels: microplate assay, multiple concentrations.
Protocol: as §7, §8, §9, §10, §11
Assay [5] has as its system Nannochloris sp. Description: 500 mL batch culture: growth, dry weight and lipid extract (gravimetric). In kind it is cell-based. Conditions: for Lipid productivity / Change in Lipids / Specific Growth Rate: Nannochloris sp., 500 mL culture, 4 nM; for Change in Lipids: gravimetric, relative to averaged control without DMSO; for Specific Growth Rate: mid-exponential growth phase.
Protocol: as §1, §2, §3, §4, §5, §6

Assay [6] has as its system Nannochloropsis oculata. Description: Lipid composition of batch culture extracts (fatty acid saturation / PUFA by 1H NMR, MALDI-TOF, GC/MS). In kind it is cell-based.
Protocol: The nonpolar algal extracts were harvested from 500 mL cultures when indicated on growth curves, a minimum of 3 days into stationary phase. […] Cells were crushed and nonpolar lipids were extracted by sonication (Fisher Scientific Model 120 Sonic Dismembrator, ThermoFisher, San Jose) for 1 minute in chloroform, followed by chloroform-methanol extractions, washed with PBS butter, and dried under vacuum.^55-60 The crude non-polar algae extracts were then analyzed by ^1H Nuclear Magnetic Resonance (^1H NMR) for verification of TAG presence and examination of the purity of the extract (determination of level of chlorophyll). The extracts were then divided for analysis; one part for transesterification, one part to save as crude extract, and one part for SPE separation and MALDI-TOF analysis of TAGs.
Triacylglycerols can be isolated by solid-phase extraction (SPE) with 500 mg silica SPE cartridges (Silicycle, Quebec). The nonpolar extract is dissolved in 300 μL hexanes, and loaded on the SPE cartridge primed with hexanes. A mixture of 80:20:1 hexanes/diethyl ether/acetic acid was used as mobile phase to elute the TAGs.^61 SPE removes any chlorophyll in this process. Residual polar fraction containing polar lipids and chlorophyll was obtained by elution with acetone. All extracts and TAG fractions were dried under vacuum and stored under argon in amber vials at −20° C. before spectroscopic analysis. After SPE, the purified TAG fraction was reanalyzed with ^1H NMR spectroscopy for TAG characterization.
The TOF was in Reflectron mode with laser intensity from 5500-6500 Volts. Each acquisition consisted of 2500 shots with a focus mass of 900 Da, and a scan range of m/z 400-1100. Multiple acquisition scans were performed at different laser intensities to determine optimal conditions. Samples for the MALDI-TOF were diluted to 5 mg/mL in hexane, and spotted in the fast-evaporation method in a 1:2 ratio with DHB (2,5-dihydroxybenzoic acid) as the matrix. Re-spotting with methanol allowed for the matrix and sample to mix without hexane interactions, and allowed for better crystal formation. All samples on MALDI plate were allowed to dry before MS analysis. Data was normalized to base peak in all cases.
After the initial weight was recorded, the nonpolar extract set aside for transesterification was dissolved in 3.0 mL of 0.6 M sulfuric acid in methanol and stirred vigorously at 60° C. for 45 minutes.
Initial GC/MS temperature was 50° C. and end was 200° C. over at a one hour period for optimal FAME peak separation.
Peak assignment of fatty acids and their derivatives are based on NMR spectroscopic studies of previously reported algal lipid extracts^9 and comparison to standards such as olive oil (ACROS) and fatty acid mixtures.
We developed a quick and robust method to screen if the screened compound effect fatty acid saturation levels using ^1H NMR spectroscopy. The amount of saturated fatty acids (SFA), monounsaturated fatty acids (MUFAs), and polyunsaturated fatty acids (PUFAs) was determined using peak area ratios.
Calculated based on ^1H NMR integral ratios for the proton signals for the methyl group of PUFA components vs. the methyl groups of monounsaturated and saturated components.
The subject of assay [7] is Phaeodactylum tricornutum. Description: 500 mL batch culture: growth, dry weight and lipid extract (gravimetric). Type of assay: cell-based. Conditions: P. tricornutum, 500 mL culture, 76 pM.
Protocol: as §1, §2, §3, §4, §5, §6
Setting [8] is: N. oculata, compounds tested at 200 nM, initial screening, p<0.05.
Setting [9] is: 200 nM, initial microplate screen, relative to control.
Setting [10] is: 20 μM, initial microplate screen, relative to control.
Setting [11] is: 40 μM, initial microplate screen, relative to control.

Where “and” joins values, the source holds several entries; their conditions need not be identical. Identical values can stand only once. Like-named read-outs stand apart in the source and are kept apart here.

Protocol for Nannochloropsis salina: as §7, §8, §9, §10, §11

For the compound `O=C([O-])O.[Na+]` [NaHCO3], in the assay with Nannochloropsis oculata [1], the Absorbance at harvest is recorded as 2.373 ± 0.217, the Dry weight is on record as 371 ± 117.8 and the “Extract Weight” value was determined as 93.5 ± 34.0.

Take `COc1cc(C[C@H]2C(=O)OC[C@@H]2Cc2ccc(OC)c(OC)c2)ccc1O` [Arctigenin, (3R,4R)-4-[(3,4-dimethoxyphenyl)methyl]-3-[(4-hydroxy-3-methoxyphenyl)methyl]-2-tetrahydrofuranone]: the “% Lipid increase based on Nile red fluorescence intensity” value (shortened to “% Lipid increase based”) in the assay with Nannochloropsis salina (N. salina, 370.4 nM, DMSO, t=day 0) worked out at 64%; in assay [4] (P. tricornutum, 41.2 nM, DMSO, t=day 0), 61%. Besides, the “% Increase based on Nile Red Fluorescence Intensity” value (from here on “% Increase based”) in the assay with Nannochloropsis salina (N. salina, 13 nM, DMSO delivery, added t=day 0) was determined as 59%; with Nannochloropsis salina (N. salina, 370.4 nM, DMSO delivery, added t=day 0) it was 64%; in assay [4] (P. tricornutum, 41.2 nM, DMSO delivery, added t=day 0) it was 61%. Besides, the “Nile Red Fluorescence % Increase” value in the assay with Nannochloropsis oculata [2] (setting [8]) worked out at 152.2%. Further, the entries for the “Absorbance (percent increase)” value with Nannochloris sp. [3] (setting [9]) and in the assay with Nannochloris sp. [3] (setting [10]) were −3.4% and −5.4%, respectively. The “Nile Red percent increase” value is listed as 66.0% in the assay on Nannochloris sp. [3] (setting [9]) and 79.0% in the assay on Nannochloris sp. [3] (setting [10]).

`Oc1ccc(/C=C/c2cc(O)cc(O)c2)cc1` [Resveratrol, 5-[(E)-2-(4-hydroxyphenyl)ethenyl]benzene-1,3-diol]: the “% Inc” value in the assay with Nannochloropsis salina (N. salina, best conc. 10 nM) is on record as 272.72%. Besides, the “Nile Red Fluorescence % Increase” value in the assay on Nannochloropsis oculata [2] (setting [8]) is 120.4%; in the assay with Nannochloris sp. [3] it was 53.3%. In addition, in assay [4] (P. tricornutum, 10 nM, DMSO, t=day 0), the “% Lipid increase based” value is listed as 61%. Further, the “% Increase based” value in assay [4] (P. tricornutum, 10 nM, DMSO delivery, added t=day 0) came out at 61%.

In the case of `Oc1ccc(-c2nc(-c3ccncc3)c(-c3ccc(F)cc3)[nH]2)cc1` [SB202190, 4-(4-Flurophenyl)-2-(4-hydroxyphenyl)-5-(4-pyridyl)-1H-imidazole], the “% Lipid increase based” value in the assay on Nannochloropsis oculata [2] (N. oculata, 400 fM, added at exponential phase, t=day 7) came to 95%. Besides, the “% Increase based” value in the assay with Nannochloropsis oculata [2] (N. oculata, 400 fM, added during exponential phase) came to 95%. The entries for the “increase in lipid levels (Nile Red)” value with Nannochloropsis oculata [2] (compound added at t=day 0) and in the assay with Nannochloropsis oculata [2] (compound added in exponential growth phase (Day 7)) were 45% and 95%, respectively. Besides, the “Nile Red percent increase” value in the assay on Nannochloris sp. [3] (123-457 pM, dose-response microplate screen) is reported as 103-175%; in assay [4] (setting [11]) it was 112.4%. In addition, the “Nile Red Fluorescence % Increase” value in the assay on Nannochloris sp. [3] is 54.6% and 28.8%; in assay [4] (P. tricornutum, compounds tested at 40 μM, initial screening, p<0.05), 115.0%. Further, the Lipid productivity in the assay on Nannochloris sp. [5] was 3.0 ± 1.7 mgL^−1day^−1; in the assay with Nannochloris sp. [5] (exponential addition), 4.0 ± 1.6 mgL^−1day^−1. Besides, the “Change in Lipids” value in the assay with Nannochloris sp. [5] (exponential addition) is reported as 38%; in the assay with Nannochloris sp. [5], 3%. For the same compound, the entries for the “Specific Growth Rate” value in the assay with Nannochloris sp. [5] (exponential addition) and in the assay on Nannochloris sp. [5] were 0.15 ± 0.08 day⁻¹ and 0.17 ± 0.02 day⁻¹, respectively. The “increase in lipid levels” value in the assay with Nannochloris sp. [5] (batch culture, added during the exponential growth phase) came to 38%; in assay [4] (DMSO as delivery agent), 26%; in assay [4] (water as delivery agent), 99%. Also, in assay [4] (setting [11]), the “Absorbance (percent increase)” value is recorded as “+4.26%”.

For the compound `OCC(O)CO` [Glycerol, propane-1,2,3-triol], the “SFAs (% of total lipids)” value with Nannochloropsis oculata [6] (11 mM, 1H NMR, Normal 24) was 39 % of total lipids. Besides, the “n3 PUFAs (% of UFAs)” value in the assay on Nannochloropsis oculata [6] (11 mM, 1H NMR, Normal 37) was 16 % of UFAs. Besides, in the assay with Nannochloropsis oculata [6] (11 mM, 1H NMR, Normal 63), the “All other PUFAs and MUFAs (% of UFAs)” value is 84 % of UFAs. Besides, the “UFAs (% of total lipids)” value in the assay with Nannochloropsis oculata [6] (11 mM, 1H NMR, Normal 76) is given as 61 % of total lipids. The “SFAs (%)” value in the assay on Nannochloropsis oculata [6] (N. oculata, 1 g/L, n=1, Normal 0 ± 1) was 30%. Moreover, the “MUFAs (%)” value in the assay on Nannochloropsis oculata [6] (N. oculata, 1 g/L, n=1, Normal 4 ± 7) was 33%. Also, in the assay with Nannochloropsis oculata [6] (N. oculata, 1 g/L, n=1, Normal 28 ± 4), the “n3 PUFAs (%)” value turned out to be 10%. In addition, the “PUFAs (%)” value in the assay with Nannochloropsis oculata [6] (N. oculata, 1 g/L, n=1, Normal 96 ± 7) is given as 38%.

Compound `Cc1cc2c(C(C)C)c(O)c(O)c(C=O)c2c(O)c1-c1c(C)cc2c(C(C)C)c(O)c(O)c(C=O)c2c1O` [Gossypol, 2,2′-bis-(Formyl-1,6,7-trihydroxy-5-isopropyl-3-methylnaphthalene)] came in with a Lipid productivity in assay [7] of 5.6 ± 1.9 mgL^−1day^−1. In assay [7] (dried lipid extract per dry biomass), this compound displayed a Lipid content of 24.4 ± 2.7 % w/w. Further, the “Change in Lipids” value in assay [7] (gravimetric, relative to averaged control without DMSO) was 27%. The “Specific Growth Rate” value in assay [7] (mid-exponential growth phase) was 0.21 ± 0.05 day⁻¹. In addition, the “% increase (lipid production)” value in the assay on Nannochloropsis salina (0.0757-6.13 nM (H2O)) is 1-27(H2O) %; in the assay on Nannochloropsis salina (0.0757-55.2 nM, DMSO delivery), 8-81%; in assay [4] (0.0252-165.6 nM), 5-283%. Besides, the “% Lipid increase based” value in the assay with Nannochloropsis salina (N. salina, 6.13 nM, DMSO, t=day 0) worked out at 103%. In the assay with Nannochloropsis salina (N. salina, 6.13 nM, DMSO delivery, added t=day 0), the “% Increase based” value is listed as 103%. In addition, the “optimal effective concentration (lipid production)” value is reported as 6 nM with Nannochloropsis salina and 0.0757 nM in assay [4] (DMSO delivery). In addition, in assay [4] (0.0757 nM, DMSO delivery), the “increase in lipid production” value is greater than 250%. Moreover, the “Nile Red percent increase” value in assay [4] (0.0757 nM, dose-response microplate screen) is on record as 111%.

Take `Oc1cc(O)c2c(c1)O[C@H](c1ccc(O)c(O)c1)[C@H](O)C2` [(−)-epicatechin, (−)-Epicatechin]: the “% Inc” value with Nannochloropsis salina (N. salina, best conc. 2.4 nM) turned out to be 147.90%. For the same compound, the “effect on lipid production / lipid levels” value (in the assay with Nannochloropsis salina; with Nannochloropsis oculata [2]; with Nannochloris sp. [3]; in assay [4]) was “lipid production increased” throughout.

With `Oc1cc(O)c2c(c1)O[C@H](c1cc(O)c(O)c(O)c1)[C@H](O)C2` [(−)-epigallocatechin, (2R,3R)-2-(3,4,5-trihydroxyphenyl)-3,4-dihydro-2H-chromene-3,5,7-triol], the “% Inc” value in the assay on Nannochloropsis salina (N. salina, best conc. 39 nM) is reported as 216.15%. Besides, the “effect on lipid production / lipid levels” value (with Nannochloropsis salina; in the assay with Nannochloropsis oculata [2]; in the assay on Nannochloris sp. [3]; in assay [4]) was “reduction in lipids” throughout.

Take `O=C(O)/C=C/c1ccc(O)c(O)c1` [Caffeic acid]: the “% increase (lipid production)” value is reported as 1-40% with Nannochloropsis salina (0.0252 nM-165.6 nM, DMSO delivery); 62-110 (H2O) % in the assay on Nannochloropsis salina (0.0252-0.681 nM (H2O)); 5% in the assay on Nannochloropsis oculata [2] (0.681 nM); 13-205% in assay [4] (6-165 nM). Further, the “Nile Red percent increase” value in the assay with Nannochloropsis salina (0.076-681 nM (H2O), dose-response microplate screen) was 96-117%. For the same compound, the “increase in lipid production” value with Nannochloropsis salina (diluted in water, microplate) is “more than 100%”. For the same compound, the “optimal effective concentration (lipid production)” value in the assay with Nannochloropsis salina fell in the range of 0.22 to 0.68 nM. In the assay with Nannochloropsis salina (with DMSO, microplate), this compound returned a lipid increase of less than 20%. Further, in assay [4] (P. tricornutum, 4 μM, (water), t=day 0), the “% Lipid increase based” value came out at 94%. Moreover, in assay [4] (P. tricornutum, 4 μM, dissolved in water, added t=day 0), the “% Increase based” value worked out at 94%. Further, the “effect on lipid production / lipid levels” value in assay [4] is reported as “minimal effect on lipid production”.

With `C/C(=C\CNc1ncnc2nc[nH]c12)CO` [Zeatin, (E)-2-methyl-4-(7H-purin-6-ylamino)but-2-en-1-ol], in the assay on Nannochloropsis salina, the “% Increase based” value is 64% and 50%; the “% Lipid increase based” value is 64%. In the assay on Nannochloropsis oculata [2], the “Nile Red Fluorescence % Increase” value was 157.1%. Also, in assay [4], the “% Increase based” value is reported as 114% and the “% Lipid increase based” value is on record as 114%.

Take `O=C(O)O` [Bicarbonate]: in the assay on Nannochloropsis oculata [6], the “MUFAs (%)” value is 13%, the “PUFAs (%)” value stood at 87%, the “SFAs (%)” value came out at 0% and the “n3 PUFAs (%)” value was determined as 20%.
